Data set [1] concerns Plutella xylostella. The experiment in a line: Insecticidal activity against Plutella xylostella (diamondback moth) assessed as mortality by greenhouse assay. It counts as functional.
The nature of data set [2]: Lipophilicity, log P of the compound. It counts as physicochemical. Conditions: octanol/water.
Data set [3] is described as follows: Aqueous solubility of the compound at pH 7. The class given is physicochemical. Conditions: buffer.
In data set [4] the test system is Myzus persicae. The experiment in a line: Insecticidal activity against Myzus persicae (green peach aphid) assessed as mortality by greenhouse assay. It counts as functional.
In data set [5] the test system is Spodoptera littoralis. The experiment in a line: Insecticidal activity against Spodoptera littoralis assessed as mortality by greenhouse assay. It counts as functional.
Data set [6] relates to Agrotis ipsilon. The experiment in a line: Insecticidal activity against Agrotis ipsilon in maize assessed as control of pests measured after 12 to 22 days of seed application. The class given is functional, organism-based.
The test system of data set [7] is Spodoptera littoralis. The experiment in a line: Insecticidal activity against Spodoptera littoralis in maize assessed as control of pests measured after 12 to 22 days of seed application. It counts as functional, organism-based.
Data set [8] concerns Liriomyza trifolii. In words: Insecticidal activity against Liriomyza trifolii in kidney beans assessed as control of pests measured after 12 to 22 days of seed application. The class given is functional, organism-based.
Data set [9] relates to Spodoptera frugiperda. The experiment in a line: Insecticidal activity against Spodoptera frugiperda (fall armyworm) in maize assessed as control of pests measured after 12 to 22 days of seed application. It counts as functional, organism-based.
Data set [10] concerns Phyllotreta striolata. The experiment in a line: Insecticidal activity against Phyllotreta striolata in radish assessed as control of pests measured after 12 to 22 days of seed application. The class given is functional, organism-based.

Structures are written as SMILES. Converted amounts (≈) assume the structure as drawn. The source made the active and inactive calls. No cut-off for these calls is given here.

One may read the EC80 as the concentration needed for an effect of 80%. The term logP denotes a log measure of how a compound divides between an organic and an aqueous phase. Low values mean a more hydrophilic compound, high ones a more lipophilic compound.

For `Cc1cc(Cl)cc(C(=O)NC(C)(C)CS(C)(=O)=NC#N)c1NC(=O)c1cc(C(F)(F)F)nn1-c1ncccc1Cl` (centres undefined), the results for the EC80 in data set [1], in [4] and in data set [5] were 0.8 µg/mL (≈ 1.3 µM), 200 µg/mL (≈ 324 µM) and 0.8 µg/mL (≈ 1.3 µM), respectively. Further, the logP in data set [2] was determined as 2.9. Further, the solubility in [3] is listed as 14 ppm.

On to `CN=S(=O)(CC(C)NC(=O)c1cc(C#N)cc(C)c1NC(=O)c1cc(Br)nn1-c1ncccc1Cl)NN(C)C` (centres undefined), for which the figures for the EC80 in data set [1], in data set [4] and in data set [5] were 12.5 µg/mL (≈ 19.6 µM), 12.5 µg/mL (≈ 19.6 µM) and 50 µg/mL (≈ 78.5 µM), respectively. The logP in [2] is 2.1. For the same molecule, the solubility in [3] came to 48 ppm.

In the case of `Cc1cc(C#N)cc(C(=O)NC(C)(C)CS(C)(=N)=O)c1NC(=O)c1cc(Br)nn1-c1ncccc1Cl` (centres undefined), the EC80 is 0.8 µg/mL (≈ 1.35 µM) in [1], 12.5 µg/mL (≈ 21.1 µM) in data set [4] and 0.8 µg/mL (≈ 1.35 µM) in data set [5]. The molecule further returned a logP in data set [2] of 1.1. The solubility in data set [3] was 42 ppm.

For `Cc1cc(C#N)cc(C(=O)NC(C)(C)CS(C)(=O)=NC#N)c1NC(=O)c1cc(Br)nn1-c1ncccc1Cl` (centres undefined), the EC80 worked out at 0.8 µg/mL (≈ 1.29 µM) in [1], 200 µg/mL (≈ 324 µM) in data set [4] and 50 µg/mL (≈ 80.9 µM) in data set [5]. The molecule further displayed a logP in data set [2] of 1.7. This molecule also registered a solubility in [3] of 59 ppm.

Turning to `CNC(=O)c1cc(Cl)cc(C)c1NC(=O)c1cc(Br)nn1-c1ncccc1Cl` [CHLORANTRANILIPROLE], the EC80 in data set [1] worked out at 0.8 µg/mL (≈ 1.66 µM); in [4] it was 50 µg/mL (≈ 103 µM); in [5], 0.8 µg/mL (≈ 1.66 µM). This molecule also yielded a logP in data set [2] of 2.8. For the same molecule, the solubility in data set [3] is listed as 1 ppm.

For `Cc1cc(Cl)cc(C(=O)NC(C)(C)CS(C)(=N)=O)c1NC(=O)c1cc(OCC(F)(F)F)nn1-c1ncccc1Cl` (centres undefined), the result in data set [6], in [7], in data set [8], in data set [9] and in data set [10] was Active. Besides, the EC80 in [1] came to 0.2 µg/mL (≈ 0.322 µM); in data set [4], 12.5 µg/mL (≈ 20.1 µM); in data set [5], 0.8 µg/mL (≈ 1.29 µM). The molecule also registered a logP in [2] of 2.4. In data set [3], this molecule yielded a solubility of 295 ppm.

Regarding `CNS(=N)(=O)CC(C)NC(=O)c1cc(Cl)cc(C)c1NC(=O)c1cc(Br)nn1-c1ncccc1Cl` (centres undefined), the EC80 in data set [1] stood at 3.1 µg/mL (≈ 5.14 µM); in data set [4] it was 200 µg/mL (≈ 331 µM); in data set [5] it was 12.5 µg/mL (≈ 20.7 µM). Moreover, the logP in data set [2] amounted to 2. Further, the solubility in [3] was found to be 95 ppm.

Regarding `Cc1cc(C#N)cc(C(=O)NC(C)(C)CS(C)(=N)=O)c1NC(=O)c1cc(OCC(F)(F)F)nn1-c1ncccc1Cl` (centres undefined), the results for the EC80 in data set [1], in [4] and in data set [5] were 0.2 µg/mL (≈ 0.327 µM), 3.1 µg/mL (≈ 5.07 µM) and 0.8 µg/mL (≈ 1.31 µM), respectively. This molecule displayed a logP in data set [2] of 1.6. Besides, the solubility in data set [3] was found to be 361 ppm.

As for `Cc1cc(C#N)cc(C(=O)NC(C)(C)CS(C)(=O)=N[N+](=O)[O-])c1NC(=O)c1cc(Br)nn1-c1ncccc1Cl` (centres undefined), the results for the EC80 in data set [1], in data set [4] and in data set [5] were 0.8 µg/mL (≈ 1.25 µM), 200 µg/mL (≈ 314 µM) and 12.5 µg/mL (≈ 19.6 µM), respectively. In addition, the logP in data set [2] was 1.9. Further, the solubility in data set [3] came to 29 ppm.

As to `CNC(=O)c1cc(C#N)cc(C)c1NC(=O)c1cc(Br)nn1-c1ncccc1Cl` [CYANTRANILIPROLE], the concentration for an effect of 80% (EC80) stood at 0.8 µg/mL (≈ 1.69 µM) in [1], 12.5 µg/mL (≈ 26.4 µM) in data set [4] and 3.1 µg/mL (≈ 6.54 µM) in data set [5]. The same molecule had a logP in [2] of 1.9. For the same molecule, the solubility in data set [3] worked out at 14 ppm.

Consider `CN=S(=O)(CC(C)NC(=O)c1cc(C#N)cc(C)c1NC(=O)c1cc(Br)nn1-c1ncccc1Cl)NOC` (centres undefined), for which the EC80 in data set [1] was 3.1 µg/mL (≈ 4.97 µM); in [4] it was more than 200 µg/mL; in [5] it was 50 µg/mL (≈ 80.1 µM). Moreover, in data set [2], the logP stood at 1.8. In [3], this molecule gave a solubility of 17 ppm.

With `Cc1cc(C(F)(C(F)(F)F)C(F)(F)F)ccc1NC(=O)c1cccc(I)c1C(=O)NC(C)(C)CS(C)(=O)=O` [FLUBENDIAMIDE], the EC80 was 3.1 µg/mL (≈ 4.54 µM) in data set [1], more than 200 µg/mL in data set [4] and 3.1 µg/mL (≈ 4.54 µM) in data set [5]. Also, the solubility in [3] was found to be 0.3 ppm.

Consider `Cc1cc(Cl)cc(C(=O)NC(C)(C)CS(C)(=N)=O)c1NC(=O)c1cc(C(F)(F)F)nn1-c1ncccc1Cl` (centres undefined), for which the result in data set [6], in data set [7], in data set [8], in data set [9] and in data set [10] was Active. For the same molecule, the EC80 in [1] was 0.8 µg/mL (≈ 1.35 µM); in [4] it was 50 µg/mL (≈ 84.5 µM); in data set [5] it was 0.8 µg/mL (≈ 1.35 µM). In addition, in [2], the logP was 2.4. In data set [3], this molecule had a solubility of 196 ppm.

Turning to `CNS(=N)(=O)CC(C)NC(=O)c1cc(C#N)cc(C)c1NC(=O)c1cc(Br)nn1-c1ncccc1Cl` (centres undefined), the EC80 in data set [1] stood at 12.5 µg/mL (≈ 21 µM); in data set [4], 200 µg/mL (≈ 337 µM); in data set [5] it was 50 µg/mL (≈ 84.2 µM). This molecule returned a logP in [2] of 1.1. In addition, the solubility in [3] was determined as 96 ppm.

The values are drawn from ChEMBL document CHEMBL3045841, “Novel diamide insecticides: sulfoximines, sulfonimidamides and other new sulfonimidoyl derivatives” (Bioorg Med Chem Lett, 2012).
